Where a SMILES comes first, the peptide text is derived from it. [ ]: non-standard residue; d: D form. The star is where a group is joined. Sta = CC(C)C[C@H](N)[C@@H](O)CC(=O)O; Isovaleryl = CC(C)CC(=O)*

This experiment deals with Lay2 L chain, human monoclonal antibody light chain (Bence Jones protein, kappa IIc subgroup) from a multiple myeloma patient. The experiment is classed as biochemical.

As to `O=C(O)CN(CCN(CC(=O)O)CC(=O)O)CC(=O)O` [EDTA], the “Effect on Lay2-catalyzed gp120 hydrolysis” value (shortened to “Effect”) is “without effect”. Regarding `CC(C)CC(=O)N[C@H](C(=O)N[C@H](C(=O)N[C@@H](CC(C)C)[C@@H](O)CC(=O)N[C@@H](C)C(=O)N[C@@H](CC(C)C)[C@@H](O)CC(=O)O)C(C)C)C(C)C` [Pepstatin A] (Isovaleryl-VV[Sta]A[Sta]-OH), the “Effect” value was “without effect”.

As to `NC(=O)CI` [iodoacetamide], the “Effect” value is “without effect”.

These data come from patent US6156541A (priority 1998, dated 2000).
